Patent publication US20230218710A1, “METHOD OF TREATING CORONAVIRUS INFECTIONS” (priority 2020, published 2023)
Counter-ions that a name gives are not always drawn. Marks after values point to notes of the source that are not given here.

How the values were obtained:
[1] = target: T1, Apelin Receptor (APJ) (Homo sapiens, UniProt P35414); assay: Activation of Ras in cultured cells overexpressing APJ; type: cell-based; conditions: 50 μM peptide, 1 min; 100 nM Pyr-Apelin-13 = positive control
T1 construct: host or cells: CHO-K1 AGTRL1 Gi cells
T1 sequence (P35414 1-380): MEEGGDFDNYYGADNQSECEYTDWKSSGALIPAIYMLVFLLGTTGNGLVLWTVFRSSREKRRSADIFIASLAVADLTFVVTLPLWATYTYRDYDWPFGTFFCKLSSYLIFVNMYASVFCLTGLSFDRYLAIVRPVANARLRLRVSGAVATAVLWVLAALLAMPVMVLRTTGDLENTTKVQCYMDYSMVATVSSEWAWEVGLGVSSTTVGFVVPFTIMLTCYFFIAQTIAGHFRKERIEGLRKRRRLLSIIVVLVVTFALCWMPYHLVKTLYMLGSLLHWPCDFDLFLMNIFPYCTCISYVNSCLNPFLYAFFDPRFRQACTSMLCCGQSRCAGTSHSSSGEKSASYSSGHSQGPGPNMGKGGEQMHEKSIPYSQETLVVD
Procedure: Peptides were initially prepared as 100× stocks in H2O. […] Following a 1 min incubation, the cells were placed on ice, the supernatant was removed, and washed twice with cold HBSS. The HBSS was removed and the cells were immediately lysed in 150 μl/well of lysis buffer included with Active Ras Detection kit (Cell Signaling Technology; Danvers, Mass.); lysis buffer was supplemented with 1 mM PMSF (Millipore-Sigma; Saint Louis, Mo.) and Halt Protease/Phosphatase Inhibitor Cocktail (Thermo-Fisher; Waltham, Mass.) prior to use. The wells were immediately scraped and lysates transferred to microfuge tubes. The samples were then placed on ice for 10 min. […] Visualization and quantification of Ras recovery (GTP-bound/active Ras) in samples were performed with Azure Biosystems C400 Imager and AzureSpot analysis software (Dublin, Calif.). […] Each data point represents the average of duplicate assays.

[2] = target: T1, Apelin Receptor (APJ); assay: Phosphorylation of ERK1/2 in cultured cells overexpressing APJ; type: cell-based; conditions: 5 min, 100 nM Pyr-Apelin-13 = positive control, acetate salts
Procedure: The effect of the peptides of the current invention on activation of Apelin Receptor (APJ)-mediated signaling can be assessed using an assay to monitor phospho-ERK/phospho-p44/42 MAPK (p-ERK1/2) levels in cultured cells overexpressing Apelin Receptor (APJ) such as CHO-K1, derived from Chinese hamster ovary. Peptides were initially prepared as 100× stocks in H2O. […] Following a 5 min incubation the supernatant was removed and the cells were placed on ice and washed twice with cold HBSS. The HBSS was removed and the cells were immediately lysed in 300 μl/well of 1× lysis buffer (CST 10× Lysis Buffer; Cell Signaling Technology; Danvers, Mass.); lysis buffer was supplemented with 1 mM PMSF (Millipore-Sigma; Saint Louis, Mo.) and Halt Protease/Phosphatase Inhibitor Cocktail (Thermo-Fisher; Waltham, Mass.) prior to use. The samples were then placed on ice for 10 min, wells were scraped and lysates transferred to microfuge tubes. The samples were centrifuged at 12,500 rpm for 10 min at 4° C. and p-ERK1/2 expression in each sample was measured using Phospho-p44/42 MAPK (Thr202/Tyr204) Sandwich ELISA kit according to manufacturer's instructions (Cell Signaling Technology; Danvers, Mass.). Absorbance was measured using a Cytation 3 plate reader at […] (BioTek; Winooski, Vt.). […] Each data point represents the average of duplicate assays.

[3] = target: T1, Apelin Receptor (APJ); assay: Phosphorylation of MEK1 in cultured cells overexpressing APJ; type: cell-based; conditions: 5 min, 100 nM Pyr-Apelin-13 = positive control, acetate salts
Procedure: Peptides were initially prepared as 100× stocks in H2O. […] Following a 5 min incubation, the supernatant was removed and the cells were placed on ice and washed twice with cold HBSS. The HBSS was removed and the cells were immediately lysed in 300 μl/well of 1× lysis buffer (CST 10× Lysis Buffer; Cell Signaling Technology; Danvers, Mass.); lysis buffer was supplemented with 1 mM PMSF (Millipore-Sigma; Saint Louis, Mo.) and Halt Protease/Phosphatase Inhibitor Cocktail (Thermo-Fisher; Waltham, Mass.) prior to use. The samples were then placed on ice for 10 min, the wells were scraped and lysates were centrifuged at 12,500 rpm for 10 min at 4° C., and p-MEK expression in each sample was measured using Phospho-MEK1 (Ser217/221) Sandwich ELISA kit according to manufacturer's instructions (Cell Signaling Technology; Danvers, Mass.). Absorbance was measured using a Cytation 3 plate reader at […] (BioTek; Winooski, Vt.). […] Each data point represents the average of duplicate assays.

[4] = test system: LPS-induced acute lung injury mouse model; assay: LPS-induced acute lung injury model in mouse (Example 6); type: in vivo, mice; conditions: 10 nmol/kg i.p.; for Mean (SEM) Lung Weight: normalized to body weight
Procedure: The effect of the peptides of the current invention on acute lung injury can be assessed in an LPS-induced acute lung injury mouse model by monitoring outcomes such as lung weight, fluid accumulation, cytokine secretion in blood or bronchoalveolar lavage fluid (BALF), neutrophil infiltration into lung tissues, and assessment of acute lung injury score by histopathology. Acute lung injury was induced in male C57BL/6 mice (6 to 8 weeks old) by intratracheal administration of 40 μL lipopolysaccharide (LPS) (Sigma Aldrich, St. Louis, Mo.) in PBS at 5 mg/kg. Control animals received intratracheal PBS alone. […] Treatments were administered 1 h prior to LPS for animals designated for sacrifice at 4 h after LPS, or at both 1 h prior to and 6 h after LPS for animals designated for sacrifice at 24 h after LPS. At 4 or 24 hours post LPS administration, tissues were harvested. Lungs were weighed, flushed with Hanks Buffer to provide bronchoalveolar lavage fluid (BALF). Lungs were fixed in 10% neutral buffered formalin (NBF) for histopathology. Tissue slides were stained with hematoxylin and eosin (H&E) and evaluated and scored with light microscopy of 5 representative microscopic fields (100× magnification) scoring on a 0-5 scale using standard methods (Matute-Bello G et al 2011. An Official American Thoracic Society Workshop Report: Features and Measurements of Experimental Acute Lung Injury in Animals. Am J Respir Cell Mol Biol 44:725-38). The average score for five fields was calculated for each animal. Levels of pro-inflammatory cytokines in BALF were determined using a meso scale discovery (MSD) system. Data for test peptides were compared to the vehicle control group. Lung weights were normalized to body weight.

[5] = test system: LPS-induced acute lung tissue damage; conditions: animals; Petrescu et al. 2010; cited from earlier work
[6] = test system: LPS-induced tissue damage in the liver; conditions: rats; Zhou et al. 2018; cited from earlier work
[7] = histopathology, 0-5 scale, 24 h after LPS

With “(PEG12)KRRLLGLVFQSLCG(dA) [SEQ ID NO: 37 HCl salt] (KRRLLGLVFQSLCGA; N-terminal PEG12, C-terminal D-Ala, HCl salt; (1)..(1) PEG12; (15)..(15) D-Ala)” the “GTP-Ras (% of Positive Control)” value [1] was 33.2%.
With `CSCC[C@H](NC(=O)CNC(=O)[C@H](CCSC)NC(=O)[C@H](CCSC)NC(=O)[C@H](CCCNC(=N)N)NC(=O)[C@@H](N)CCCNC(=N)N)C(=O)N[C@H](C(=O)N[C@@H](Cc1ccccc1)C(=O)N[C@@H](CCC(N)=O)C(=O)N[C@@H](CO)C(=O)N[C@@H](CC(C)C)C(=O)N[C@@H](CS)C(=O)NCC(=O)N[C@H](C)C(=O)O)C(C)C` [SEQ ID NO: 15 HCl salt] the “GTP-Ras (% of Positive Control)” value [1] was 90.8%.
In the case of `CSCC[C@H](NC(=O)CNC(=O)[C@H](CCSC)NC(=O)[C@H](CCSC)NC(=O)[C@H](CCCNC(=N)N)NC(=O)[C@@H](N)CCCNC(=N)N)C(=O)N[C@H](C(=O)N[C@@H](Cc1ccccc1)C(=O)N[C@@H](CCC(N)=O)C(=O)N[C@@H](CO)C(=O)N[C@@H](CC(C)C)C(=O)N[C@@H](CS)C(=O)NCC(=O)N[C@H](C)C(=O)O)C(C)C` [SEQ ID NO: 15 Acetate salt], the “GTP-Ras (% of Positive Control)” value [1] is reported as 64.9%.
With `CSCC[C@H](NC(=O)CNC(=O)[C@H](CCSC)NC(=O)[C@H](CCSC)NC(=O)[C@H](CCCNC(=N)N)NC(=O)[C@@H](N)CCCNC(=N)N)C(=O)N[C@H](C(=O)N[C@@H](Cc1ccccc1)C(=O)N[C@@H](CCC(N)=O)C(=O)N[C@@H](CO)C(=O)N[C@@H](CC(C)C)C(=O)N[C@@H](CS)C(=O)NCC(=O)N[C@H](C)C(=O)O)C(C)C` [SEQ ID NO: 15] the “pERK1/2 (% of Positive Control)” value ([2]; 0.4 μM peptide) was 1.9%, the “pERK1/2 (% of Positive Control)” value ([2]; 2.0 μM peptide) was 15.4% and the “pERK1/2 (% of Positive Control)” value ([2]; 10 μM peptide) was 44.4%. The “pERK1/2 (% of Positive Control)” value ([2]; 50 μM peptide) was 69.7%, the “pMEK1 (% of Positive Control)” value ([3]; 2.0 μM peptide) was 2.5% and the “pMEK1 (% of Positive Control)” value ([3]; 10 μM peptide) was 14.3%. The “pMEK1 (% of Positive Control)” value ([3]; 50 μM peptide) was 52.7%.
In the case of “(PEG12)KRRLLGLVFQSLCG(dA) [SEQ ID NO: 37 Acetate salt] (KRRLLGLVFQSLCGA; N-terminal PEG12, C-terminal D-Ala, acetate salt; (1)..(1) PEG12; (15)..(15) D-Ala)”, the “GTP-Ras (% of Positive Control)” value [1] is reported as 79.2%.
For `CSCC[C@H](NC(=O)[C@@H]1CCCN1C(=O)CNC(=O)[C@H](CCCCN)NC(=O)[C@H](Cc1c[nH]cn1)NC(=O)[C@H](CO)NC(=O)[C@H](CC(C)C)NC(=O)[C@H](CCCNC(=N)N)NC(=O)[C@@H]1CCCN1C(=O)[C@H](CCCNC(=N)N)NC(=O)[C@@H](N)CCC(N)=O)C(=O)N1CCC[C@H]1C(=O)N[C@@H](Cc1ccccc1)C(=O)O` [Apelin-13], the “Pro-inflammatory Cytokine Level IFNγ” value ([4]; BALF, 4 h after LPS) was 0.04 pg/mL, the “Pro-inflammatory Cytokine Level IL-1β” value ([4]; BALF, 4 h after LPS) was 123 pg/mL and the “Pro-inflammatory Cytokine Level IL-6” value ([4]; BALF, 4 h after LPS) was 4540 pg/mL. For the same molecule, the “Pro-inflammatory Cytokine Level IL-17-A” value ([4]; BALF, 4 h after LPS) was 0.87 pg/mL, the “Pro-inflammatory Cytokine Level IL-17-C” value ([4]; BALF, 4 h after LPS) was 1.84 pg/mL and the “Pro-inflammatory Cytokine Level IL-23” value ([4]; BALF, 4 h after LPS) was 0.68 pg/mL. For the same molecule, the “Pro-inflammatory Cytokine Level KC/GRO” value ([4]; BALF, 4 h after LPS) was 3210 pg/mL, the “Pro-inflammatory Cytokine Level TNFα” value ([4]; BALF, 4 h after LPS) was 15500 pg/mL and the “Mean (SEM) Alveolar Neutrophil Infiltration Score” value [4, 7] was 1.40 (0.21). The “Mean (SEM) Interstitial Neutrophil Infiltration Score” value [4, 7] was 1.13 (0.11), the “Mean (SEM) Composite Lung Injury Score” value ([4]; histopathology, 24 h after LPS) was 2.58 (0.29) and the “Mean (SEM) Lung Weight” value ([4]; 4 h after LPS) was 1.03 (0.03)** g. The “Mean (SEM) Lung Weight” value ([4]; 24 h after LPS) was 1.32 (0.03)* g, the “Pulmonary vascular leakage resulting from LPS-induced acute lung tissue damage (in words)” value [5] was “reduce pulmonary vascular leakage” and the “Tissue damage in the liver induced by LPS (in words)” value [6] was “attenuated tissue damage in the liver”.
